{"source": "patent US20250145570A1", "about": "“DHODH INHIBITOR POLYMORPH” (Aslan Pharmaceuticals Pte Ltd, priority 2022, published 2025)", "key": {"[1]": {"assay": "Particle size distribution (PSD)", "assay_type": "physicochemical"}, "[2]": {"assay": "Polymorph screening experiments (XRPD of returned solids)", "assay_type": "physicochemical", "conditions": "for XRPD after thermal cycling: 5-40° C., ~72 hours, THP and THF; for XRPD after 2-week slurry: 40° C.; for XRPD (Grind): fast evaporation at 100° C., post-grinding", "description": "A solvent solubility screen was carried out on the farudodstat DSP polymorph (also referred to as CS-276-22 in the following examples) to determine its solubility in various solvents, and to gain an initial assessment of the polymorphic landscape. To ˜20 mg samples of predominantly amorphous farudodstat, aliquots (2×50 μL and then 100 μL) of the chosen solvents were added until dissolution was observed, or 2 mL had been added. The samples were manually agitated and heated to ˜40° C. in a block attached to a water bath in between each aliquot Clear solutions were uncapped and allowed to evaporate at room temperature. Any solids obtained from slurries and from evaporation were analysed by X-ray powder diffraction (XRPD).\n16×20 mg of the farudodstat DSP polymorph sample was weighed into 2 mL bead mill vials and was milled for 1.5 hrs for amorphization. Next, 5 μL of appropriate solvents (see Table 6) were added to each sample. The samples were then bead milled using the following procedure: • 1. 2 stainless steel beads were added to each vial. • 2. 4500 rpm • 3. 10×90 s cycles • 4. 10 s hold between each cycle • 5. Repeated 4× to give 1 hr milling time\n16×20 mg of farudodstat sample was first weighed into 2 mL bead mill vials and was milled to prepare amorphous material. To all the […] bead milled samples, appropriate solvents (see Table 6) were added in 100 μL aliquots until a mobile slurry was obtained without any dissolution observed. Between additions, the samples were stirred at 40° C. Samples were then stirred, and temperature cycled between 5-40° C. (0.1° C./min heating/cooling rate, 1 hour hold at each temperature) for ˜72 hours.\nAfter 48 hours, samples were checked. If necessary, additional solids added. Non-mobile solid in solution samples were agitated using a spatula until a mobile slurry was obtained. Slurries were isolated by centrifugation ([…] nylon filters) and the solids analysed by XRPD. Post XRPD analysis, the XRPD plate was dried at 40° C. under vacuum for 48 hours and the solids reanalysed by XRPD to give an indication of form stability.\nThe saturate isolated from the previous thermal cycling experiment was left to evaporate at room temperature. Any solids returned from evaporation were analysed by XRPD.\n16×20 mg of farudodstat sample was weighed into 2 mL bead mill vials and then milled to prepare amorphous material. To the bead milled sample, appropriate solvent was added in 100 μL aliquots until a mobile slurry was obtained without any dissolution observed. Between additions, the samples were stirred at 50° C. and 100° C. depending upon the boiling point of the solvent to dissolve the API in the solvent system. Samples were checked and slurries were isolated by centrifugation ([…] Nylon filters) and the saturates were put in an HPLC vials. Next, the vials were uncapped and were left to evaporate at 50° C. using a water bath. Finally, after the complete evaporation of solvent, the remaining solid were analysed by XRPD to check for appearance of any new patterns.\n20 mg×5 of farudodstat sample was weighed into 2 ml bead mill vials and milled to prepare amorphous material. To the bead milled sample, appropriate solvent was added in 100 μL aliquots until a mobile slurry was obtained without any dissolution observed. Between additions, the samples were stirred at 100° C. to dissolve the API in the solvent system. Samples were checked and slurries were isolated by centrifugation (0.22 μm Nylon filters) and the saturates were put in an HPLC vials. The vials were then uncapped and were left to evaporate at 100° C. using a sand bath. After the complete evaporation of solvent, the remaining solid were analysed by XRPD to check for appearance of any new patterns.\n20 mg×16 farudodstat sample was weighed into 2 ml bead mill vials and milled to prepare amorphous material. The appropriate solvent was added in 100 μL aliquots until a mobile slurry was obtained without any dissolution observed. […]"}}, "data": [{"smiles": "COc1cccc(-c2cc(F)c(Nc3ncccc3C(=O)O)c(F)c2)c1", "note": "[1412NC0160A-01]", "values": [{"measurement": "Particle Size D10", "setting": "[1]", "value": 32.34, "unit": "μm"}, {"measurement": "Particle Size D50", "setting": "[1]", "value": 160.95, "unit": "μm"}, {"measurement": "Particle Size D90", "setting": "[1]", "value": 238.22, "unit": "μm"}, {"measurement": "Particle Size MV", "setting": "[1]", "value": 151.47, "unit": "μm"}]}, {"smiles": "COc1cccc(-c2cc(F)c(Nc3ncccc3C(=O)O)c(F)c2)c1", "note": "[1302NC0160A-01]", "values": [{"measurement": "Particle Size D10", "setting": "[1]", "value": 2.54, "unit": "μm"}, {"measurement": "Particle Size D50", "setting": "[1]", "value": 5.97, "unit": "μm"}, {"measurement": "Particle Size D90", "setting": "[1]", "value": 11.79, "unit": "μm"}, {"measurement": "Particle Size MV", "setting": "[1]", "value": 6.70, "unit": "μm"}]}, {"smiles": "COc1cccc(-c2cc(F)c(Nc3ncccc3C(=O)O)c(F)c2)c1", "note": "[farudodstat, 2-(3,5-difluoro-3′-methoxybiphenyl-4-ylamino) nicotinic acid]", "values": [{"measurement": "XRPD after room temperature evaporation", "setting": "[2]; 1,1,1.3.3.3-Hexafluoro-2-Propanol, 2-Methyl THF, DMF, THF and THP", "value": "returned to Pattern 1"}, {"measurement": "XRPD after room temperature evaporation", "setting": "[2]; 1,1-Dimethoxymethane, 1,3-Dioxolane, 1,4-Dioxane", "value": "showed preferred orientation of Pattern 1 but returned to Pattern 1 after grinding"}, {"measurement": "XRPD after 2-week slurry then fast evaporation at 100° C.", "setting": "[2]; 1,1-Dimethoxymethane, 1,3-Dioxolane, 2-Ethoxyethanol, 1,1,1.3.3.3-Hexafluoro-2-Propanol, DMA, DMF and NMP", "value": "showed preferred orientation. However, post-grinding returned these to Pattern 1"}, {"measurement": "XRPD of solids, solvent solubility assessment", "setting": "[2]; 1,1-Dimethoxymethane, 1,4-Dioxane, 2-Ethoxyethanol, 1,1,1,3,3,3-Hexafluoro-2-Propanol, 2-Methyl THF, Benzyl Alcohol", "value": "remained amorphous"}, {"measurement": "XRPD after fast evaporation at 50° C.", "setting": "[2]; 1,1-dimethoxymethane and 2-propanol", "value": "showed amorphous pattern"}, {"measurement": "XRPD after fast evaporation at 50° C.", "setting": "[2]; 1,3-dioxlane, 1,4-dioxane", "value": "showed preferred orientation"}, {"measurement": "XRPD after fast evaporation at 50° C.", "setting": "[2]; 2-Ethoxyethanol, new peak at 21.1° 2θ", "value": "potential new pattern"}, {"measurement": "XRPD of solids, solvent solubility assessment", "setting": "[2]; 2-propanol, 48% Methanol:52% Water, 93% Ethanol:7% Water, 98.5% Ethanol:1.5% Water, Methanol, tert-Butylmethyl Ether", "value": "returned to Pattern 1"}, {"measurement": "XRPD after thermal cycling", "setting": "[2]; 1,4-dioxane", "value": "remained semi-crystalline"}, {"measurement": "XRPD after thermal cycling", "setting": "[2]; solvents other than 1,4-dioxane", "value": "returned to Pattern 1"}, {"measurement": "XRPD after 2-week slurry", "setting": "[2]; 93% Ethanol:7% Water, 48% Methanol:52% Water, 2-Propanol, 2-Methyl THF", "value": "returned to Pattern 1"}, {"measurement": "XRPD after 2-week slurry", "setting": "[2]; THF and THP", "value": "additional peaks with Pattern 1 at 8.1° 2θ (Pattern 1+)"}, {"measurement": "XRPD after fast evaporation at 50° C.", "setting": "[2]; DMF", "value": "pattern 1 with significant preferred orientation"}, {"measurement": "XRPD after anti-solvent addition + fast cool", "setting": "[2]; MEK as anti-solvent in 1,4-dioxane, freezer 72 hrs", "value": "consistent with Pattern 1"}, {"measurement": "XRPD after fast evaporation at 50° C.", "setting": "[2]; THP, THF, 2-methyl THF and 1,1,1.3.3.3-Hexafluoro-2-Propanol", "value": "returned to Pattern 1"}, {"measurement": "XRPD after anti-solvent addition", "setting": "[2]; acetone as anti-solvent, 1,1,1.3.3.3-Hexafluoro-2-Propanol", "value": "returned to Pattern 1 with additional peaks"}, {"measurement": "XRPD after solvent drop grinding", "setting": "[2]; all 16 solvent systems", "value": "returned to pattern 1"}, {"measurement": "XRPD after bead milling", "setting": "[2]; bead milling", "value": "less crystalline material"}, {"measurement": "XRPD after fast cooling", "setting": "[2]; crash cooling of 1,3-dioxolane saturate, freezer 72 hrs", "value": "preferred orientation of Pattern 1"}, {"measurement": "XRPD of solids, solvent solubility assessment", "setting": "[2]; evaporation of clear solution of THF and THP", "value": "showed preferred orientation, but later returned to Pattern 1 post grinding"}, {"measurement": "XRPD (Grind)", "setting": "[2]; N,N′-Dimethylacetamide", "value": "Pattern 1"}, {"measurement": "XRPD (Grind)", "setting": "[2]; N,N′-Dimethylformamide", "value": "Pattern 1"}, {"measurement": "XRPD after anti-solvent addition at 50° C.", "setting": "[2]; water addition to all the 16 saturates", "value": "returned to Pattern 1"}, {"measurement": "XRPD after anti-solvent addition", "setting": "[2]; water, room temperature, except 2-Methyl THF, 2-Propanol, 48% Methanol:52% Water, 93% Ethanol:7% Water, Benzyl Alcohol (clear solutions)", "value": "returned to Pattern 1"}]}, {"smiles": "COc1cccc(-c2cc(F)c(Nc3ncccc3C(=O)O)c(F)c2)c1", "note": "[1412NC0160A-02]", "values": [{"measurement": "Particle Size D10", "setting": "[1]", "value": 0.90, "unit": "μm"}, {"measurement": "Particle Size D50", "setting": "[1]", "value": 3.46, "unit": "μm"}, {"measurement": "Particle Size D90", "setting": "[1]", "value": 45.05, "unit": "μm"}, {"measurement": "Particle Size MV", "setting": "[1]", "value": 13.27, "unit": "μm"}]}]}
